Legend:
[1] = target: Dual specificity mitogen-activated protein kinase kinase 1 (Homo sapiens, UniProt Q02750); assay: Selectivity interaction (KinomeScan (DiscoverX)) EUB0001049a MAP2K1; conditions: at 1 µM
[2] = target: T1, Serine/threonine-protein kinase LATS1 (Homo sapiens) (UniProt O95835); assay: Selectivity interaction (KinomeScan (DiscoverX)) EUB0000666a LATS1; conditions: at 10 µM
T1 sequence (whole entry): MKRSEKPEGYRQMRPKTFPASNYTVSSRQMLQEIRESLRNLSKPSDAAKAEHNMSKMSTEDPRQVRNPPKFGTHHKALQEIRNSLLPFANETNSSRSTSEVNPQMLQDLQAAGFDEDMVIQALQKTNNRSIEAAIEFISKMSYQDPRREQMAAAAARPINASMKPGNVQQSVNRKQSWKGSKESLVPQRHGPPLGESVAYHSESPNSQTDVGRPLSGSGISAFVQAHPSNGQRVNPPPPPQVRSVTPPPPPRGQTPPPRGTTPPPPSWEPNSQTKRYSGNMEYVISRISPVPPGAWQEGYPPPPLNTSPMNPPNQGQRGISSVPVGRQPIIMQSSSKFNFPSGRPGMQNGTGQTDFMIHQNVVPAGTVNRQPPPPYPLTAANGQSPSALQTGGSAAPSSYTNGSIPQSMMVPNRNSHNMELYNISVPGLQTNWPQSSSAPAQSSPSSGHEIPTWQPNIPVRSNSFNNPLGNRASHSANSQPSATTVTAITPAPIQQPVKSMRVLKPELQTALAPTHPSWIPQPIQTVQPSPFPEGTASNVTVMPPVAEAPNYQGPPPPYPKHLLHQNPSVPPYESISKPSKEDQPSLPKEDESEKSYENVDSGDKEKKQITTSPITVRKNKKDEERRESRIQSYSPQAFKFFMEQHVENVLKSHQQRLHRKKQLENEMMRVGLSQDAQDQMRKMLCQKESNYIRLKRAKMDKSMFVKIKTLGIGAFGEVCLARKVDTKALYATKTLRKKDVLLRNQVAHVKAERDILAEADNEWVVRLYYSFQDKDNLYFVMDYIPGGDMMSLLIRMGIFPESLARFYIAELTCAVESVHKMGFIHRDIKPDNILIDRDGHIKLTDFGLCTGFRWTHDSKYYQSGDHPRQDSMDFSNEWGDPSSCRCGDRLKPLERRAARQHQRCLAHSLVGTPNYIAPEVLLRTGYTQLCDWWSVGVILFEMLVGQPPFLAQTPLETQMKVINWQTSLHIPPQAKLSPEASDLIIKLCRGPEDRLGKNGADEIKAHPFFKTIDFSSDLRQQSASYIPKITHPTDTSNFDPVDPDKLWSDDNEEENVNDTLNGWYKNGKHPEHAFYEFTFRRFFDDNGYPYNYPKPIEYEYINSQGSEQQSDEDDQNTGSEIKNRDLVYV

[3] = target: STE20/SPS1-related proline-alanine-rich protein kinase (Homo sapiens) (UniProt Q9UEW8); assay: Selectivity interaction (Kinase panel (DSF assay)) EUB0001559a STK39
[4] = tested on: Proto-oncogene tyrosine-protein kinase receptor Ret (Homo sapiens), P07949 [V804L]; assay: (§1) Selectivity interaction (KinomeScan (DiscoverX)) EUB0000595a RET; conditions: at 10 µM
[5] = tested on: Proto-oncogene tyrosine-protein kinase receptor Ret (Homo sapiens), P07949 [M918T]; assay: as §1; conditions: at 10 µM
[6] = target: Proto-oncogene tyrosine-protein kinase receptor Ret (Homo sapiens, UniProt P07949); assay: as §1; conditions: at 10 µM
[7] = target: T2, Histone-lysine N-methyltransferase NSD3 (Homo sapiens) (UniProt Q9BZ95); assay: Selectivity interaction (Methyltransferase screen (radiometric assays, panel of 8 PRMTs, 21 protein lysine methyltransferases, 3 DNA methyltransferases, and one RNA methyltransferase)) EUB0000272b NSD3
T2 sequence (whole entry): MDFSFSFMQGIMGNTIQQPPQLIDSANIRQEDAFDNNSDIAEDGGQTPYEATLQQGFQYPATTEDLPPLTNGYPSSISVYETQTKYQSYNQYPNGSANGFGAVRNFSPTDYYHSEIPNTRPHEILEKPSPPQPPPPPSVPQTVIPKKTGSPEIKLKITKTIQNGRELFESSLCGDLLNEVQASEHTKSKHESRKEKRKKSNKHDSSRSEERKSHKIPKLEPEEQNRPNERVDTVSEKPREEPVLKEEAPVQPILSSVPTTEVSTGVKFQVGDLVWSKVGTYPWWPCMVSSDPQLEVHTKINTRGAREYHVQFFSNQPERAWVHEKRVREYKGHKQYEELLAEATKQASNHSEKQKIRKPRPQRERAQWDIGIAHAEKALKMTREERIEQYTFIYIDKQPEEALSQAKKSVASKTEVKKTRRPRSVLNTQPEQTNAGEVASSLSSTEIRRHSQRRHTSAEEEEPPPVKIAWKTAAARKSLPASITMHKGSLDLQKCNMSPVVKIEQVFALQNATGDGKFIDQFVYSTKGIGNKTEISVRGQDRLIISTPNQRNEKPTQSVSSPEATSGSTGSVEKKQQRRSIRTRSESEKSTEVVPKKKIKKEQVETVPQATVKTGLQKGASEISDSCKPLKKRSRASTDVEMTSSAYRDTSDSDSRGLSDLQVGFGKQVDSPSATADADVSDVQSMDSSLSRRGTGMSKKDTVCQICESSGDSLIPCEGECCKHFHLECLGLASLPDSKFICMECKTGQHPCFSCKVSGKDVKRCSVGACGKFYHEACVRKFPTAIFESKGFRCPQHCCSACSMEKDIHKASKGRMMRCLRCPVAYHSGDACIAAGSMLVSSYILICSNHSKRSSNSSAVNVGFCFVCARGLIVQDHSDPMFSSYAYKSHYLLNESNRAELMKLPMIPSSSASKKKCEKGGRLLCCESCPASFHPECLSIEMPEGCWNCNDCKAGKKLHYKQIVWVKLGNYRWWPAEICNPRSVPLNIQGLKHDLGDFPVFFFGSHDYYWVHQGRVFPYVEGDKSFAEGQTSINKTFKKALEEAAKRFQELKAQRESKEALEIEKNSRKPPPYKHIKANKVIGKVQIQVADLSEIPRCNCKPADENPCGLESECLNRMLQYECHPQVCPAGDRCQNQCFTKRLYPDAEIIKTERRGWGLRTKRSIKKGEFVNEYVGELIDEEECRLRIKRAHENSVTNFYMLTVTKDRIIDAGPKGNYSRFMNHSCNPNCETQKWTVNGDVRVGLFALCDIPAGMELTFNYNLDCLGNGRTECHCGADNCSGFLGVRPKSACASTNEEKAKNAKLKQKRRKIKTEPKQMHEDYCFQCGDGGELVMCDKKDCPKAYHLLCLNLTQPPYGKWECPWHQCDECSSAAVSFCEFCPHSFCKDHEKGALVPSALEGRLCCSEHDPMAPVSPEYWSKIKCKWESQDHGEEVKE

Dual specificity mitogen-activated protein kinase kinase 1, sequence (Q02750 whole entry): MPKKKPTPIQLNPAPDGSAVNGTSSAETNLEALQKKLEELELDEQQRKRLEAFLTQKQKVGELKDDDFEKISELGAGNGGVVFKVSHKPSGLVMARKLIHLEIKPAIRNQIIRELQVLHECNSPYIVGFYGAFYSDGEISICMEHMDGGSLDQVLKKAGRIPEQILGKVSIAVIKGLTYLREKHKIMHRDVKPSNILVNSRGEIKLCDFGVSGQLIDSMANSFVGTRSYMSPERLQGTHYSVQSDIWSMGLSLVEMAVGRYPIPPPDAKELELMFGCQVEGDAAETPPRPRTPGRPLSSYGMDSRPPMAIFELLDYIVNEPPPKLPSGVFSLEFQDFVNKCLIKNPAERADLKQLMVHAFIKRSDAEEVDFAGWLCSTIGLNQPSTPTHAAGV
Proto-oncogene tyrosine-protein kinase receptor Ret (Homo sapiens), P07949 [M918T], sequence (P07949 whole entry M918T): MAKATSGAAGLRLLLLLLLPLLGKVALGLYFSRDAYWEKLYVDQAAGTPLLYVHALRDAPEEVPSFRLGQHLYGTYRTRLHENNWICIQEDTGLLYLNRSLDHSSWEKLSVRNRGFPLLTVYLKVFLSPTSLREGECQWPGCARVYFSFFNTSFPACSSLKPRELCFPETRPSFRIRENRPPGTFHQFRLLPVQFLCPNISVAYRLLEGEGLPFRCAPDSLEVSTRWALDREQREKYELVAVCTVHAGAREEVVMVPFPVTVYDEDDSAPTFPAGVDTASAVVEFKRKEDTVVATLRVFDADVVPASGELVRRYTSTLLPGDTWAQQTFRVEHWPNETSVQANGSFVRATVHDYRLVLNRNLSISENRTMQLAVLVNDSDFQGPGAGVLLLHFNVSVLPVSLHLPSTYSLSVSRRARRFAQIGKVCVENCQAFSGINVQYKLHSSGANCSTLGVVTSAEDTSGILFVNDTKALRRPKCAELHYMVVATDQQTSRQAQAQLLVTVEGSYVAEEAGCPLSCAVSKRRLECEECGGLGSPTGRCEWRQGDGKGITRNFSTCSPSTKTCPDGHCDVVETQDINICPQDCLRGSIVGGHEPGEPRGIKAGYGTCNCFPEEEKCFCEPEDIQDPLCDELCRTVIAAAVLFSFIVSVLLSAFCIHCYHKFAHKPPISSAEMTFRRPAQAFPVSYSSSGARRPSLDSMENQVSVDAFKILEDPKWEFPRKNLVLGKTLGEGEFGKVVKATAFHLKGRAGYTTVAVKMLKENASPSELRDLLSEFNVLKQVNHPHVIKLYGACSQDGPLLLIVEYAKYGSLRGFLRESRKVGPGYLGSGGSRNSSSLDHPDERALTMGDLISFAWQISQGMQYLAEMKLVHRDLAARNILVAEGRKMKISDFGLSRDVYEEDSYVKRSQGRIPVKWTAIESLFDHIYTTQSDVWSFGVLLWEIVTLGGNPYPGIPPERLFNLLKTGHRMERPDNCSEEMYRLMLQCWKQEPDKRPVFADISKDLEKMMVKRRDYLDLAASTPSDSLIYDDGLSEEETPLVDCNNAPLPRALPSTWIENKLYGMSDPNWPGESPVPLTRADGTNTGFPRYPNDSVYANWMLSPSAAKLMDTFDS
Proto-oncogene tyrosine-protein kinase receptor Ret, sequence (P07949 whole entry): as the sequence (P07949 whole entry M918T) above, with T918M counted along it
Proto-oncogene tyrosine-protein kinase receptor Ret (Homo sapiens), P07949 [V804L], sequence (P07949 whole entry V804L): as the sequence (P07949 whole entry M918T) above, with V804L, T918M counted along it

COc1cc(Nc2nc(C)cc(-c3cnn4nc(OC)ccc34)n2)cc(C(F)(F)F)c1
% of control [1]: 80%

O=C(NOC[C@H](O)CO)c1ccc(F)c(F)c1Nc1ccc(I)cc1F
% of control [2]: 100%

CN(C(=O)c1cnn2cccnc12)c1cc2c(cc1N1CCOCC1)C(=O)N(C[C@@H](F)C(C)(C)O)C2
dTM [3]: 0.8 K

COCC(=O)NC/C=C/c1ccc2ncnc(Nc3ccc(Oc4ccc(C)nc4)c(C)c3)c2c1 [CP-724714]
% of control [4]: 100%
% of control [5]: 77%
% of control [6]: 87%

Cc1cc(C)cc([C@H]2c3cc(C)ccc3NC(=O)CN2C(=O)c2ccc(Br)s2)c1
% of activity ([7]; at 1 µM): 104%
% of activity ([7]; at 10 µM): 99%

From ChEMBL document CHEMBL5465560, “Selectivity Literature for EUbOPEN Chemogenomic Library” (2024)
